From patent publication US20150174137A1, “COMPOSITIONS FOR TREATING MICROBIAL INFECTIONS” (ALCON RESEARCH, LTD., priority 2010, published 2015)
In brackets after ≈: the same amount, converted by molar mass.

Assays:
[1] = pH 7.4 in 0.1M phosphate buffer; cited from earlier work
[2] = Solubility studies of fluoroquinolones (0.3%) with ZnCl2, MgCl2 or CaCl2; details: quinolone 0.3%
[3] = Solubility of finafloxacin in three magnesium chloride-containing solutions at various pH; format: physicochemical; details: for solubility: aqueous with cosolvent or surfactant or cyclodextrin
[4] = Solubility studies of finafloxacin monohydrochloride in aqueous solution with various salts; format: physicochemical
Source text: TABLE 1 below summarizes the results of solubility studies using finafloxacin monohydrochloride in aqueous solution with various salts at different concentrations. […] In particular, magnesium salts generated clear, colorless solutions at slightly acidic, physiologically-compatible pH ranges.

[5] = TABLE 3A magnesium chloride-containing solution, final pH 5.73
[6] = TABLE 3A magnesium chloride-containing solution, final pH 6.23
[7] = TABLE 3A magnesium chloride-containing solution, final pH 6.58
[8] = TABLE 3A magnesium chloride-containing solution, final pH 7.12
[9] = TABLE 3A magnesium chloride-containing solution, final pH 7.55
[10] = TABLE 3B magnesium chloride-containing solution, pH 6.08
[11] = TABLE 3B magnesium chloride-containing solution, pH 6.15
[12] = TABLE 3B magnesium chloride-containing solution, pH 6.69
[13] = TABLE 3B magnesium chloride-containing solution, pH 7.29
[14] = TABLE 3B magnesium chloride-containing solution, pH 7.54
[15] = TABLE 3C magnesium chloride-containing solution, pH 5.22
[16] = TABLE 3C magnesium chloride-containing solution, pH 6.19
[17] = TABLE 3C magnesium chloride-containing solution, pH 6.65
[18] = TABLE 3C magnesium chloride-containing solution, pH 7.16
[19] = TABLE 3C magnesium chloride-containing solution, pH 7.67
[20] = 0.05% MgCl2 5.27 mM + 0.05% ZnCl2 3.67 mM
[21] = 0.05% MgCl2 5.27 mM + 0.1% ZnCl2 7.34 mM
[22] = 0.1% MgCl2 10.5 mM + 0.05% ZnCl2 3.67 mM
[23] = 0.1% MgCl2 10.5 mM + 0.1% ZnCl2 7.3 mM
[24] = AlCl3 13.5 mM, Conc. (%) 0.180%
[25] = CaGluconate 17.5 mM, Conc. (%) 0.75%
[26] = Mg(CH3COO)2 1.3 mM, Conc. (%) 0.019%
[27] = Mg(CH3COO)2 6.7 mM, Conc. (%) 0.095%
[28] = Mg(CH3COO)2 13.5 mM, Conc. (%) 0.19%
[29] = MgCl2 2.45 mM, Conc. (%) 0.023%
[30] = ZnCl2 13.5 mM, Conc. (%) 0.184%

SMILES: COc1c(N2CCNC(C)C2)c(F)cc2c(=O)c(C(=O)O)cn(C3CC3)c12 (stereo not shown) [GATIFLOXACIN, gatifloxacin]
- literature-reported aqueous solubility [1]: 0.21 w/v %
- C.C.S. (clear colorless solution) pH Range ([2]; CaCl2 10.0 mM, Conc. (w/v %) 0.08%): 7.31-7.55
- C.C.S. (clear colorless solution) pH Range ([2]; MgCl2 10.0 mM, Conc. (w/v %) 0.09%): 6.97-7.52
- C.C.S. (clear colorless solution) pH Range ([2]; ZnCl2 10.0 mM, Conc. (w/v %) 0.13%): 6.61-7.31

SMILES: Cl.N#Cc1c(N2C[C@@H]3NCCO[C@H]3C2)c(F)cc2c(=O)c(C(=O)O)cn(C3CC3)c12 [Finafloxacin HCl, finafloxacin monohydrochloride]
- Solubility of finafloxacin [3, 5]: 0.404 w/v %
- Solubility of finafloxacin [3, 6]: 0.727 w/v %
- Solubility of finafloxacin [3, 7]: 0.638 w/v %
- Solubility of finafloxacin [3, 8]: 0.944 w/v %
- Solubility of finafloxacin [3, 9]: 1.244 w/v %
- Solubility of finafloxacin [3, 10]: 0.316 w/v %
- Solubility of finafloxacin [3, 11]: 0.355 w/v %
- Solubility of finafloxacin [3, 12]: 0.628 w/v %
- Solubility of finafloxacin [3, 13]: 0.915 w/v %
- Solubility of finafloxacin [3, 14]: 1.140 w/v %
- Solubility of finafloxacin [3, 15]: 0.130 w/v %
- Solubility of finafloxacin [3, 16]: 0.216 w/v %
- Solubility of finafloxacin [3, 17]: 0.346 w/v %
- Solubility of finafloxacin [3, 18]: 0.501 w/v %
- Solubility of finafloxacin [3, 19]: 0.921 w/v %

SMILES: N#Cc1c(N2C[C@@H]3NCCO[C@H]3C2)c(F)cc2c(=O)c(C(=O)O)cn(C3CC3)c12 [Finafloxacin, 8-cyano-1-cyclopropyl-6-fluoro-7-[(4aS,7aS)-hexahydropyrrolo[3,4-b]-1,4-oxazin-6(2H)-yl]-1,4-dihydro-4-oxo-3-quinoline carboxylic acid]
- solubility [3, 5]: 3700 µg/mL (≈ 9.29 mM)
- solubility [3, 6]: 6660 µg/mL (≈ 16.7 mM)
- solubility [3, 7]: 5850 µg/mL (≈ 14.7 mM)
- solubility [3, 8]: 8650 µg/mL (≈ 21.7 mM)
- solubility [3, 9]: 11400 µg/mL (≈ 28.6 mM)
- solubility [3, 10]: 2900 µg/mL (≈ 7.28 mM)
- solubility [3, 11]: 3250 µg/mL (≈ 8.16 mM)
- solubility [3, 12]: 5760 µg/mL (≈ 14.5 mM)
- solubility [3, 13]: 8390 µg/mL (≈ 21.1 mM)
- solubility [3, 14]: 10400 µg/mL (≈ 26.2 mM)
- solubility [3, 15]: 1190 µg/mL (≈ 2.99 mM)
- solubility [3, 16]: 1980 µg/mL (≈ 4.97 mM)
- solubility [3, 17]: 3170 µg/mL (≈ 7.96 mM)
- solubility [3, 18]: 4590 µg/mL (≈ 11.5 mM)
- solubility [3, 19]: 8440 µg/mL (≈ 21.2 mM)
- C.C.S. (clear colorless solution) pH Range [4, 20]: 4.86-5.87
- Observation [4, 20]: C.C.S
- C.C.S. (clear colorless solution) pH Range [4, 21]: 4.62-5.86
- Observation [4, 21]: C.C.S
- C.C.S. (clear colorless solution) pH Range [4, 22]: 5.01-5.75
- Observation [4, 22]: C.C.S
- C.C.S. (clear colorless solution) pH Range [4, 23]: 4.68-5.88
- Observation [4, 23]: C.C.S
- C.C.S. (clear colorless solution) pH Range ([4]; AlCl3 1.3 mM, Conc. (%) 0.018%): Not Formed
- Observation ([4]; AlCl3 1.3 mM, Conc. (%) 0.018%): Suspension at pH 3.7-7.4
- C.C.S. (clear colorless solution) pH Range ([4]; AlCl3 6.7 mM, Conc. (%) 0.09%): 2.83-7.46
- Observation ([4]; AlCl3 6.7 mM, Conc. (%) 0.09%): Pale-yellow→at pH 7.58
- C.C.S. (clear colorless solution) pH Range [4, 24]: 2.50-7.24
- Observation [4, 24]: Pale-yellow → at pH 7.41
- C.C.S. (clear colorless solution) pH Range ([4]; CaCl2 1.3 mM, Conc. (%) 0.015%): Not Formed
- Observation ([4]; CaCl2 1.3 mM, Conc. (%) 0.015%): Suspension at pH 3.7
- C.C.S. (clear colorless solution) pH Range ([4]; CaCl2 6.7 mM, Conc. (%) 0.075%): Not Formed
- Observation ([4]; CaCl2 6.7 mM, Conc. (%) 0.075%): Suspension at pH 3.7
- C.C.S. (clear colorless solution) pH Range ([4]; CaCl2 13.5 mM, Conc. (%) 0.15%): 6.45
- Observation ([4]; CaCl2 13.5 mM, Conc. (%) 0.15%): C.C.S
- C.C.S. (clear colorless solution) pH Range ([4]; CaCl2 20.0 mM, Conc. (%) 0.22%): 6.29-6.39
- Observation ([4]; CaCl2 20.0 mM, Conc. (%) 0.22%): C.C.S
- C.C.S. (clear colorless solution) pH Range [4, 25]: Not Formed
- Observation [4, 25]: Suspension at pH 3.7
- C.C.S. (clear colorless solution) pH Range ([4]; CuCl2 1.3 mM, Conc. (%) 0.018%): Not Formed
- Observation ([4]; CuCl2 1.3 mM, Conc. (%) 0.018%): Suspension at pH 3.7-7.4
- C.C.S. (clear colorless solution) pH Range ([4]; CuCl2 6.7 mM, Conc. (%) 0.09%): 5.14-7.26
- Observation ([4]; CuCl2 6.7 mM, Conc. (%) 0.09%): Light blue coloration
- C.C.S. (clear colorless solution) pH Range ([4]; CuCl2 13.5 mM, Conc. (%) 0.18%): 5.77-6.11
- Observation ([4]; CuCl2 13.5 mM, Conc. (%) 0.18%): Light blue coloration
- C.C.S. (clear colorless solution) pH Range ([4]; KCl 93 mM, Conc. (%) 0.7%): Not Formed
- Observation ([4]; KCl 93 mM, Conc. (%) 0.7%): Suspension at pH 3.7-7.4
- C.C.S. (clear colorless solution) pH Range [4, 26]: Not Formed
- Observation [4, 26]: Suspension at pH 3.7-7.4
- C.C.S. (clear colorless solution) pH Range [4, 27]: 6.05-7.57
- Observation [4, 27]: C.C.S.
- C.C.S. (clear colorless solution) pH Range [4, 28]: 5.21-8.51
- Observation [4, 28]: C.C.S.
- C.C.S. (clear colorless solution) pH Range ([4]; MgCl2 1.3 mM, Conc. (%) 0.012%): Not Formed
- Observation ([4]; MgCl2 1.3 mM, Conc. (%) 0.012%): Suspension at pH 3.7-7.4
- C.C.S. (clear colorless solution) pH Range [4, 29]: Not Formed
- Observation [4, 29]: Suspension at pH 3.7-7.4
- C.C.S. (clear colorless solution) pH Range ([4]; MgCl2 4.91 mM, Conc. (%) […]): 6.68-7.65
- Observation ([4]; MgCl2 4.91 mM, Conc. (%) […]): C.C.S
- C.C.S. (clear colorless solution) pH Range ([4]; MgCl2 6.7 mM, Conc. (%) 0.064%): 6.00-9.84
- Observation ([4]; MgCl2 6.7 mM, Conc. (%) 0.064%): C.C.S
- C.C.S. (clear colorless solution) pH Range ([4]; MgCl2 13.5 mM, Conc. (%) 0.12%): 5.26-9.61
- Observation ([4]; MgCl2 13.5 mM, Conc. (%) 0.12%): C.C.S
- C.C.S. (clear colorless solution) pH Range ([4]; MgSO4 1.3 mM, Conc. (%) 0.016%): Not Formed
- Observation ([4]; MgSO4 1.3 mM, Conc. (%) 0.016%): Suspension at pH 3.7-7.4
- C.C.S. (clear colorless solution) pH Range ([4]; MgSO4 6.7 mM, Conc. (%) 0.08%): 6.36-9.23
- Observation ([4]; MgSO4 6.7 mM, Conc. (%) 0.08%): C.C.S
- C.C.S. (clear colorless solution) pH Range ([4]; MgSO4 13.5 mM, Conc. (%) 0.16%): 6.29-7.44
- Observation ([4]; MgSO4 13.5 mM, Conc. (%) 0.16%): C.C.S
- C.C.S. (clear colorless solution) pH Range ([4]; NaCl 13.5 mM, Conc. (%) 0.076%): Not Formed
- Observation ([4]; NaCl 13.5 mM, Conc. (%) 0.076%): Suspension at pH 3.7-7.4
- C.C.S. (clear colorless solution) pH Range ([4]; NaCl 27 mM, Conc. (%) 0.15%): Not Formed
- Observation ([4]; NaCl 27 mM, Conc. (%) 0.15%): Suspension at pH 3.7-7.4
- C.C.S. (clear colorless solution) pH Range ([4]; NaCl 120 mM, Conc. (%) 0.79%): Not Formed
- Observation ([4]; NaCl 120 mM, Conc. (%) 0.79%): Suspension at pH 3.7-7.4
- C.C.S. (clear colorless solution) pH Range ([4]; NaSO4 21.3 mM, Conc. (%) 0.3%): Not Formed
- Observation ([4]; NaSO4 21.3 mM, Conc. (%) 0.3%): Suspension at pH 3.7-7.4
- C.C.S. (clear colorless solution) pH Range ([4]; ZnCl2 1.3 mM, Conc. (%) 0.018%): Not Formed
- Observation ([4]; ZnCl2 1.3 mM, Conc. (%) 0.018%): Suspension at pH 3.7-7.4
- C.C.S. (clear colorless solution) pH Range ([4]; ZnCl2 6.7 mM, Conc. (%) 0.09%): 4.90-5.47
- Observation ([4]; ZnCl2 6.7 mM, Conc. (%) 0.09%): C.C.S
- C.C.S. (clear colorless solution) pH Range [4, 30]: 4.50-5.55
- Observation [4, 30]: C.C.S
- C.C.S. (clear colorless solution) pH Range ([4]; ZnCl2 20.0 mM, Conc. (%) 0.27%): 5.06-5.87
- Observation ([4]; ZnCl2 20.0 mM, Conc. (%) 0.27%): C.C.S
- C.C.S. (clear colorless solution) pH Range ([4]; ZnSO4 13.5 mM, Conc. (%) 0.22%): 5.65
- Observation ([4]; ZnSO4 13.5 mM, Conc. (%) 0.22%): C.C.S
